Test results from patent publication US20250195513A1, “DEGRADATION OF IRAK4 BY CONJUGATION OF IRAK4 INHIBITORS WITH E3 LIGASE LIGAND AND METHODS OF USE” (BeiGene, Ltd., priority 2022, published 2025).

Legend:
IRAK4 [1] = target: T1, IRAK4 (Homo sapiens, UniProt Q9NWZ3); experiment: IRAK4 Degradation Assay (Karpas299, HTRF/TR-FRET); assay type: cell-based; conditions: Karpas-299 cells; for Dmax: maximum percentage of degradation
T1 construct: endogenous in cells; host or cells: Karpas299
T1 sequence (Q9NWZ3 1-460): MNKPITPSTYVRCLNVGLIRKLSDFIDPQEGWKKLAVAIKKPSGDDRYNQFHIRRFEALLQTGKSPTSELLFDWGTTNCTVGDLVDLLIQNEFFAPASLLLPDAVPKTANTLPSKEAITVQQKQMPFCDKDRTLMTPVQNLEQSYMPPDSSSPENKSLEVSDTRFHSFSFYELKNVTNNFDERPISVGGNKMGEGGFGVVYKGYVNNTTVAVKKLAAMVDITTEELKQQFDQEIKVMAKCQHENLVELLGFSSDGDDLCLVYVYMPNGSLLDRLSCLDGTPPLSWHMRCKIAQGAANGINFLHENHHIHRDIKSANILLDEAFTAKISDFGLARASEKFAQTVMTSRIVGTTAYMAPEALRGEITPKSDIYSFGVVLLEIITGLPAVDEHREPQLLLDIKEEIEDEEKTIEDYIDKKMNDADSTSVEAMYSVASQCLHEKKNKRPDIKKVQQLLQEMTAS
Procedure, shortened: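 Karpas299 cells at 0.2 million per well were exposed to serially diluted compounds for 24 h or 5 h, then lysed. IRAK4 remaining in lysates was quantified by HTRF (665/620 nm) after overnight antibody incubation at room temperature. Percent degradation was fitted to a four-parameter curve to give IC50 (DC50).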

IRAK4 [2] = target: T1, IRAK4; experiment: IRAK4 Degradation Assay with Human Serum (Karpas299, HTRF/TR-FRET); assay type: cell-based; conditions: Karpas-299 in human serum, 24 hrs treatment; for DC50: read-out: IRAK4 degradtion with human serum assay DC50; for Dmax: read-out: IRAK4 degradtion with human serum assay Dmax (%)
Procedure, shortened: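 Karpas299 cells in human AB serum (0.2 million/well) treated with serial compound dilutions for 24 h. After lysis, IRAK4 quantified by HTRF (overnight antibody incubation at room temperature, 665/620 nm read). Degradation percentage fitted to four-parameter curve to give DC50.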

[3] = 24 h treatment, read-out: IRAK4 in Karpas-299 (24 h) Dmax (%)
[4] = 24 h treatment, read-out: IRAK4 in Karpas-299 (24 h) DC50

| Compound | Dmax (IRAK4 [1]; [3]) [%] | DC50 (IRAK4 [1]; [4]) [nM] | DC50 (IRAK4 [2]) [nM] | Dmax (IRAK4 [2]) [%] | Dmax (IRAK4 [1]; 5 h treatment, read-out: IRAK4 in Karpas-299 (5 h) Dmax (%)) [%] | DC50 (IRAK4 [1]; 5 h treatment, read-out: IRAK4 in Karpas-299 (5 h) DC50) [nM] |
| --- | --- | --- | --- | --- | --- | --- |
| C[C@H]1CN(CC2CN(c3cc(F)c([C@H]4CCC(=O)NC4=O)c(F)c3)C2)CCN1[C@H]1CC[C@H](n2cc3cc(NC(=O)c4ccc5cc(C#N)cnn45)c(C(C)(C)O)cc3n2)CC1 [Example 306, 3-cyano-N-(2-((1S,4r)-4-((S)-4-((1-(4-((R)-2,6-dioxopiperidin-3-yl)-3,5-difluorophenyl)azetidin-3-yl)methyl)-2-methylpiperazin-1-yl)cyclohexyl)-6-(2-hydroxypropan-2-yl)-2H-indazol-5-yl)pyrrolo[1,2-b]pyridazine-7-carboxamide] | 98 | 1.3 | 8.3 | 100 | – | – |
| CC(C)(O)c1cc2nn([C@H]3CC[C@H](N4CCN(CCc5cc(F)c([C@H]6CCC(=O)NC6=O)c(F)c5)C[C@@H]4CC#N)CC3)cc2cc1NC(=O)c1ccc2cc(C#N)cnn12 [Example 389, 3-cyano-N-(2-((1S,4r)-4-((S)-2-(cyanomethyl)-4-(4-((R)-2,6-dioxopiperidin-3-yl)-3,5-difluorophenethyl)piperazin-1-yl)cyclohexyl)-6-(2-hydroxypropan-2-yl)-2H-indazol-5-yl)pyrrolo[1,2-b]pyridazine-7-carboxamide] | 94 | 1 | 13 | 100 | – | – |
| Cc1nc(C2CCC(=O)NC2=O)ccc1N1CCC(N2CCN(C[C@H]3CC[C@H](n4cc5cc(NC(=O)c6ccc7cc(C#N)cnn67)c(C(C)(C)O)cc5n4)CC3)CC2)CC1 (stereo partly shown) [Example 420, 3-cyano-N-(2-((1r,4r)-4-((4-(1-(6-(2,6-dioxopiperidin-3-yl)-2-methylpyridin-3-yl)piperidin-4-yl)piperazin-1-yl)methyl)cyclohexyl)-6-(2-hydroxypropan-2-yl)-2H-indazol-5-yl)pyrrolo[1,2-b]pyridazine-7-carboxamide] | 97 | 2.8 | 17 | 96 | – | – |
| C[C@@H]1CN(CC2CN(c3cc(F)c([C@H]4CCC(=O)NC4=O)c(F)c3)C2)CCN1[C@H]1CC[C@H](n2cc3cc(NC(=O)c4ccc5cc(C#N)cnn45)c(C(C)(C)O)cc3n2)CC1 [Example 300, 3-cyano-N-(2-((1R,4r)-4-((R)-4-((1-(4-((R)-2,6-dioxopiperidin-3-yl)-3,5-difluorophenyl)azetidin-3-yl)methyl)-2-methylpiperazin-1-yl)cyclohexyl)-6-(2-hydroxypropan-2-yl)-2H-indazol-5-yl)pyrrolo[1,2-b]pyridazine-7-carboxamide] | 96 | 0.9 | 2.4 | 102 | – | – |
| CC(C)(O)c1cc2nn(C34CC(N5CCN(C(=O)C6CN(c7cc(F)c([C@H]8CCC(=O)NC8=O)c(F)c7)C6)CC5)(C3)C4)cc2cc1NC(=O)c1ccc2cc(C#N)cnn12 [Example 157, (R)-3-cyano-N-(2-(3-(4-(1-(4-(2,6-dioxopiperidin-3-yl)-3,5-difluorophenyl)azetidine-3-carbonyl)piperazin-1-yl)bicyclo[1.1.1]pentan-1-yl)-6-(2-hydroxypropan-2-yl)-2H-indazol-5-yl)pyrrolo[1,2-b]pyridazine-7-carboxamide] | 98 | 0.4 | 21 | 99 | – | – |

Now from value to molecule:

| Dmax (IRAK4 [1]; [3]) [%] | DC50 (IRAK4 [1]; [4]) [nM] | DC50 (IRAK4 [2]) [nM] | Dmax (IRAK4 [2]) [%] | Dmax (IRAK4 [1]; 5 h treatment, read-out: IRAK4 in Karpas-299 (5 h) Dmax (%)) [%] | DC50 (IRAK4 [1]; 5 h treatment, read-out: IRAK4 in Karpas-299 (5 h) DC50) [nM] | Compound |
| --- | --- | --- | --- | --- | --- | --- |
| 97 | 2.6 | 21 | 99 | – | – | CC(C)(O)c1cc2nn([C@H]3CC[C@H](N4CCN(C(=O)C5CN(c6ccc(N7CCC(=O)NC7=O)cc6)C5)CC4)CC3)cc2cc1NC(=O)c1ccc2cc(C#N)cnn12 [Example 265, 3-cyano-N-(2-((1r,4r)-4-(4-(1-(4-(2,4-dioxotetrahydropyrimidin-1(2H)-yl)phenyl)azetidine-3-carbonyl)piperazin-1-yl)cyclohexyl)-6-(2-hydroxypropan-2-yl)-2H-indazol-5-yl)pyrrolo[1,2-b]pyridazine-7-carboxamide] |
| 97 | 3.3 | 7 | 98 | 97 | 6.8 | COc1cc(N2CC(C(=O)N3CCN([C@H]4CC[C@H](n5cc6cc(NC(=O)c7ccc8cc(C#N)cnn78)c(C(C)(C)O)cc6n5)CC4)CC3)C2)cc(F)c1N1CCC(=O)NC1=O [Example 210, 3-cyano-N-(2-((1r,4r)-4-(4-(1-(4-(2,4-dioxotetrahydropyrimidin-1(2H)-yl)-3-fluoro-5-methoxyphenyl)azetidine-3-carbonyl)piperazin-1-yl)cyclohexyl)-6-(2-hydroxypropan-2-yl)-2H-indazol-5-yl)pyrrolo[1,2-b]pyridazine-7-carboxamide] |
| 98 | 0.8 | 34 | 95 | – | – | CC(C)(O)c1cc2nn([C@H]3CC[C@H](N4CCN([C@@H]5CCN(c6cc(F)c(C7CCC(=O)NC7=O)c(F)c6)C5)CC4)CC3)cc2cc1NC(=O)c1ccc2cc(C#N)cnn12 (stereo partly drawn) [Example 396, 3-cyano-N-(2-((1R,4r)-4-(4-((3R)-1-(4-(2,6-dioxopiperidin-3-yl)-3,5-difluorophenyl)pyrrolidin-3-yl)piperazin-1-yl)cyclohexyl)-6-(2-hydroxypropan-2-yl)-2H-indazol-5-yl)pyrrolo[1,2-b]pyridazine-7-carboxamide] |
| 97 | 1.7 | 28 | 97 | – | – | CCc1cc(N2CC(C(=O)N3CCN([C@H]4CC[C@H](n5cc6cc(NC(=O)c7ccc8cc(C#N)cnn78)c(C(C)(C)O)cc6n5)CC4)CC3)C2)ccc1N1CCC(=O)NC1=O [Example 257, 3-cyano-N-(2-((1r,4r)-4-(4-(1-(4-(2,4-dioxotetrahydropyrimidin-1(2H)-yl)-3-ethylphenyl)azetidine-3-carbonyl)piperazin-1-yl)cyclohexyl)-6-(2-hydroxypropan-2-yl)-2H-indazol-5-yl)pyrrolo[1,2-b]pyridazine-7-carboxamide] |
| 94 | 4 | 11 | 101 | – | – | CC(C)(O)c1cc2nn([C@H]3CC[C@H](N4CCN([C@H]5C[C@@H](c6ccc(N[C@@H]7CCC(=O)NC7=O)cc6)C5)CC4)CC3)cc2cc1NC(=O)c1ccc2cc(C#N)cnn12 [Example 271, 3-cyano-N-(2-((1R,4r)-4-(4-((1S,3S)-3-(4-(((R)-2,6-dioxopiperidin-3-yl)amino)phenyl)cyclobutyl)piperazin-1-yl)cyclohexyl)-6-(2-hydroxypropan-2-yl)-2H-indazol-5-yl)pyrrolo[1,2-b]pyridazine-7-carboxamide] |
| 97 | 3.4 | 14 | 98 | – | – | CC(C)(O)c1cc2nn([C@H]3CC[C@H](N4CCN([C@@H]5CCN(c6ccc(N7CCC(=O)NC7=O)cc6)C5)CC4)CC3)cc2cc1NC(=O)c1ccc2cc(C#N)cnn12 [Example 294, 3-cyano-N-(2-((1R,4r)-4-(4-((R)-1-(4-(2,4-dioxotetrahydropyrimidin-1(2H)-yl)phenyl)pyrrolidin-3-yl)piperazin-1-yl)cyclohexyl)-6-(2-hydroxypropan-2-yl)-2H-indazol-5-yl)pyrrolo[1,2-b]pyridazine-7-carboxamide] |
